Measured values taken from ChEMBL document CHEMBL1151150, “Brominated Metabolites from the Sponge Aplysina (verongia) thiona” (J Nat Prod, 1990).
Calls of active or inactive are those of the source.

Assays:
Type in all cases: functional, organism-based
Staphylococcus aureus = experiment: Antimicrobial activity against Staphylococcus aureus
Shigella sonnei = experiment: Antimicrobial activity against Shigella sonnei
Streptococcus pyogenes = experiment: Antimicrobial activity against Streptococcus pyogenes
[1] = test system: Salmonella enterica subsp. enterica serovar Typhi str. CT18; experiment: Antimicrobial activity against Salmonella typhi

Measured: Activity

CCCCO[C@]1(OC)C(Br)=C[C@@](O)(CC(N)=O)C=C1Br
inactive: all assays above

CCCCCO[C@]1(OC)C(Br)=C[C@@](O)(CC(N)=O)C=C1Br
inactive: all assays above

COc1c(Br)cc2c(c1Br)OC(=N)C2
inactive: all assays above

COc1c(Br)cc2c(c1Br)OC(=O)C2=C(C)C
inactive: all assays above
